# In article PMC11320734 (ACS Pharmacology & Translational Science, 2024):
# Assays:
# cynomolgus CB2R = cynomolgus CB2R (Macaca fascicularis, UniProt G7NVV5); assay: cAMP assay in CHO cells; assay type: cell-based; conditions: mean ± SD; read-out: EC50 cAMP assay, monkey CB2R
# MAGL = MAGL (Homo sapiens, UniProt Q99685); assay: Endocannabinoid target profiling: MAGL; assay type: biochemical
# PPARg = PPARg (Homo sapiens, UniProt P37231); assay: Endocannabinoid target profiling: PPARg; conditions: Table S1; read-out: PPARg (Ki, IC50)
# human P-gp = target: T1, human P-gp (Homo sapiens, UniProt P08183); assay: P-gp assay in transfected LLC-PK1 cells; assay type: in vitro ADME; conditions: read-out: P-gp transporter ER human
# T1 construct: expressed in transfected cells; host or cells: LLC-PK1 (porcine kidney epithelial) cells
# Protocol: (§1) The general permeability of the compound was assessed using the parallel artificial membrane permeability (PAMPA) assay and the permeability-glycoprotein (P-gp) assay was used to specifically test for brain penetration. PAMPA data were generated as previously reported by our group.[44] The P-gp assay, which evaluates the brain penetration of test compounds, was performed as described elsewhere.[45] Briefly, transfected porcine kidney epithelial (LLC-PK1) cells expressing human or mouse P-gp were cultured on 96-well semipermeable filter membrane plates (Millipore, Darmstadt, Germany). Cells formed a polarized monolayer with tight junctions that acted as a barrier between apical and basolateral compartments. P-gp was expressed in the apical-facing membrane of the monolayer (tightness confirmed using Lucifer yellow). […] The effect of P-gp was measured by expressing the efflux ratio of the unidirectional A > B and B > A Papp values. The mean permeability (A > B and B > A Papp) was determined in the absence of P-gp via the addition of the selective P-gp inhibitor, tariquidar.
# mouse P-gp = target: T2, mouse P-gp (Mus musculus, UniProt P21447); assay: P-gp assay in transfected LLC-PK1 cells; assay type: in vitro ADME; conditions: read-out: P-gp transporter ER mouse
# T2 construct: expressed in transfected cells; host or cells: LLC-PK1 (porcine kidney epithelial) cells
# Protocol: as §1
# Microsomal clearance = assay type: in vitro ADME; conditions: mouse, mouse microsomes; Table 3
# Protocol: The hepatocyte clearance assay was performed as previously described.[39] For mice hepatocytes, the suspension cultures were either freshly prepared by liver perfusion or prepared from cryopreserved hepatocyte batches (pooled C57BL6 mouse hepatocytes were purchased from BioreclamationIVT (NY, USA)). For human hepatocytes, commercially available, pooled (5–20 donors), cryopreserved samples from nontransplantable liver tissues were used. For the suspension cultures, Nunc U96 PP-0.5 mL (Nunc Natural, 267245) plates were used, which were incubated in a Thermo Forma incubator from Fischer Scientific (Wohlen, Switzerland) equipped with shakers from Variomag Teleshake (Sterico, Wangen, Switzerland) for maintaining cell dispersion. The cell culture medium was William’s media supplemented with glutamine, antibiotics (100 IU/mL Penicillin-Streptomycin, Gibco), insulin, dexamethasone, and 10% fetal calf serum (FCS). Incubations of a test compound at 1 μM test concentration in suspension cultures of 1 × 10^6 cells mL^–1 (∼1 μg μL^–1 protein concentration) were performed in 96-well plates and shaken at 900 rpm for up to 2 h in a 5% CO2 atmosphere at 37 °C. After 3, 6, 10, 20, 40, 60, and 120 min, a 100 μL cell suspension in each well was quenched with 200 μL methanol containing an internal standard. Samples were then cooled and centrifuged before analysis by LC-MS/MS. […]
# GSH adduct formation = assay type: in vitro ADME, rat
# Protocol: Cytochrome P450 (CYP) assays were conducted as previously described.[41] In brief, RNB-61 was incubated at a range of concentrations with the following components: pooled human liver microsomes, CYP probe substrate around the reported Km, and NADPH with a final concentration: 1 mM in 100 mM sodium phosphate buffer (pH 7.4). The conditions were optimized for a linear metabolic rate for the probe substrate reactions. The analysis of the samples was carried out by LC-MS/MS. The assays generated two endpoints: IC50 (μM) and percent inhibition at the highest acceptable test concentration (typically 50 μM; lower if the highest concentration data are rejected due to insolubility). […] (GSH) adduct formation data was assessed as reported in a previous study.[42] Briefly, RNB-61 was incubated with human liver microsomes to form reactive metabolites, and glutathione was added as a nucleophile to convert the reactive metabolites into stable conjugates that could be analyzed by MS.
# [1] = Fraction unbound in plasma; assay type: in vitro ADME
# Description: Table 3 Physicochemical and ADMET Properties of RNB-61 | column: 481.556
# [2] = test system: UUO-induced kidney fibrosis; assay: Unilateral ureteral obstruction (UUO) model of kidney fibrosis; assay type: in vivo, Sprague–Dawley rats
# Protocol: In the ischemia/reperfusion (I/R) model of acute kidney injury (AKI),[47],[48] the compounds were administered orally by gavage to C57BL/6 mice 30 min before ischemia obtained by clamping both renal arteries and veins for 25 min, followed by 24 h of reperfusion. Mice were anesthetized using xylazine (10 mg kg^–1)/ketamine (100 mg kg^–1) injected intraperitoneally. Sham treated mice were treated identically except for the temporary closure of the renal vessels. After 24 h, under reanesthesia, plasma was taken for biomarker analysis. Thereafter, mice still in deep anesthesia were sacrificed by cervical dislocation. Creatinine, BUN (blood urea nitrogen), NGAL (neutrophil gelatinase-associated lipocalin), osteopontin, and KIM1 (kidney injury molecule-1) levels were determined using the following commercially available standard assays: creatinine: Roche Diagnostics 03263991, BUN: Roche Diagnostics 04460715, NGAL: BioPorto, Kit046 + Kit042, osteopontin: R&D Systems, MOST00, KIM-1: Abnova, KA1064. To assess fibrotic effects, we used the unilateral ureteral obstruction (UOO) model in Sprague–Dawley rats.[49] For the UOO model, rats were sacrificed after 5, 8, and 11 days and the percentage of PicroSirius Red positive areas (indicator of collagen III–I deposition) were measured in 4 μm histological cross sections of the kidney after 2% paraformaldehyde perfusion fixation and paraffin embedding. The extend of kidney fibrosis was quantified based on PicroSirius Red staining of 10 renal sections about 1 mm apart from each kidney. The collagen–III-I-positive pixel counts were determined in the cortical aspect of each kidney section from 10 optical fields using a 40× objective. As the total area analyzed was identical for all kidneys under investigation, the absolute number of pixels was used as the relevant readout. Vehicle treated animals received saline gavage only. The details of PicroSirius Red staining were previously described.[22]
# MAGL, sequence (Q99685 whole entry, species assumed): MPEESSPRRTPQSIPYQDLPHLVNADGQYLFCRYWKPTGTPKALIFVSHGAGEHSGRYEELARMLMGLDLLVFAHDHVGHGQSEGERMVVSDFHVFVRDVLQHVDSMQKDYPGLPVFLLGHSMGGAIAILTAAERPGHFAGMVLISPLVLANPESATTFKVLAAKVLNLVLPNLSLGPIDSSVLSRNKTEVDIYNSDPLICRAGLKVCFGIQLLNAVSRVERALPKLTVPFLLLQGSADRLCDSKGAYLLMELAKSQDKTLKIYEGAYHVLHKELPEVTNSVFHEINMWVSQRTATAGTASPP
# PPARg, sequence (P37231 whole entry, species assumed): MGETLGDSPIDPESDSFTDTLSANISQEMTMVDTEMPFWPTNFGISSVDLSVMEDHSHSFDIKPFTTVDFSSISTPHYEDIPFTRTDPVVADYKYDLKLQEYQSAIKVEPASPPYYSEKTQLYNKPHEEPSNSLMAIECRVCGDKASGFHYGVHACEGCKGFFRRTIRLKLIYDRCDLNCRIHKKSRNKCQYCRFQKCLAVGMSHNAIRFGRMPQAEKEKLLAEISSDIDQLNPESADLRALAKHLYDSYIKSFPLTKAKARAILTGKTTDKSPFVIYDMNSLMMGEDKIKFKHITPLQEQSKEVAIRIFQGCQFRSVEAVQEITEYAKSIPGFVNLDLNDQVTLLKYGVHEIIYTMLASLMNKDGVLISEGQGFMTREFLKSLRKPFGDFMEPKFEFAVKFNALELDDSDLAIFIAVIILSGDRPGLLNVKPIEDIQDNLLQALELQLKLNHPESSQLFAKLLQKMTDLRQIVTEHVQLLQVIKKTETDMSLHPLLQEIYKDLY
# cynomolgus CB2R, sequence (G7NVV5 1-360): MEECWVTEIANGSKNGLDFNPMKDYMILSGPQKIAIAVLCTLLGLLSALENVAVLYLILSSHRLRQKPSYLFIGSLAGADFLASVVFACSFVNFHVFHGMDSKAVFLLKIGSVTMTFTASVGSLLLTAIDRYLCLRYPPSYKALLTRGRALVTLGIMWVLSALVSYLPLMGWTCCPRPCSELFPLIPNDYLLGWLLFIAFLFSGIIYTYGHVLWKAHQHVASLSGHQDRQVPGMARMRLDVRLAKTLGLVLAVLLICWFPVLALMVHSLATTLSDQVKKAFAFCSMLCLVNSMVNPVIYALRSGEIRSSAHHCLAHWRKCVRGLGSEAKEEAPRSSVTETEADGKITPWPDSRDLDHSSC
# T1 sequence (P08183 whole entry): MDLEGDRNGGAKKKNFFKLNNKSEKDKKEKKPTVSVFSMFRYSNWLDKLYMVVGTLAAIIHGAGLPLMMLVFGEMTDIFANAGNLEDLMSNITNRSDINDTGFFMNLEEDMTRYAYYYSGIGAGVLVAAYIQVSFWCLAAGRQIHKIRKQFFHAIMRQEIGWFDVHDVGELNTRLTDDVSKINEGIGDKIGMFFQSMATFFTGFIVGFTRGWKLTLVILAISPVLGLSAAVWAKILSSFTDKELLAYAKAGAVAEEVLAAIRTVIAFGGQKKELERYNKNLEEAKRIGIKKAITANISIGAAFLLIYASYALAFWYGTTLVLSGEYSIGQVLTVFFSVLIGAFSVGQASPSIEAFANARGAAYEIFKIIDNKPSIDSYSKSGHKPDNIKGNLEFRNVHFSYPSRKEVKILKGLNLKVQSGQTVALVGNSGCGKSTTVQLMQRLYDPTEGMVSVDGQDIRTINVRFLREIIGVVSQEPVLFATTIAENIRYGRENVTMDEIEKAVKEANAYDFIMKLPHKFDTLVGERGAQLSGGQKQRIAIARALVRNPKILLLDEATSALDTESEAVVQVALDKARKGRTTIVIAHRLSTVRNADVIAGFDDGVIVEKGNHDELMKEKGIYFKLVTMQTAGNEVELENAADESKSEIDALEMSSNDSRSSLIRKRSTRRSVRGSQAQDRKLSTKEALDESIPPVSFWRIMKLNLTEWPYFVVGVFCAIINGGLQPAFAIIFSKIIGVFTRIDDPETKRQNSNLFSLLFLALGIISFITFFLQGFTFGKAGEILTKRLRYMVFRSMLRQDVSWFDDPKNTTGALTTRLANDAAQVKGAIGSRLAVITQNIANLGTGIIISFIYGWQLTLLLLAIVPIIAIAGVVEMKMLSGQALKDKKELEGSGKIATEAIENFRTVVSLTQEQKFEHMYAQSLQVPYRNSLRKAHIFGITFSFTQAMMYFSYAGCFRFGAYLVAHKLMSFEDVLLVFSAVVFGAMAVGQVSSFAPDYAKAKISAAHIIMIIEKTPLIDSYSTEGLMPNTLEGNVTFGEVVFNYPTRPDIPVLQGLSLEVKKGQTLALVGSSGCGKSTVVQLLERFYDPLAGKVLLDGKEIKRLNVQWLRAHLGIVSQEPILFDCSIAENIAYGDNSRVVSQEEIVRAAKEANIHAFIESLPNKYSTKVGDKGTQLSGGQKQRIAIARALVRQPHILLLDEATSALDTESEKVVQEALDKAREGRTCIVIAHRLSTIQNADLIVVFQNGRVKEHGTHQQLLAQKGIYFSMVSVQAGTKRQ
# T2 sequence (P21447 whole entry): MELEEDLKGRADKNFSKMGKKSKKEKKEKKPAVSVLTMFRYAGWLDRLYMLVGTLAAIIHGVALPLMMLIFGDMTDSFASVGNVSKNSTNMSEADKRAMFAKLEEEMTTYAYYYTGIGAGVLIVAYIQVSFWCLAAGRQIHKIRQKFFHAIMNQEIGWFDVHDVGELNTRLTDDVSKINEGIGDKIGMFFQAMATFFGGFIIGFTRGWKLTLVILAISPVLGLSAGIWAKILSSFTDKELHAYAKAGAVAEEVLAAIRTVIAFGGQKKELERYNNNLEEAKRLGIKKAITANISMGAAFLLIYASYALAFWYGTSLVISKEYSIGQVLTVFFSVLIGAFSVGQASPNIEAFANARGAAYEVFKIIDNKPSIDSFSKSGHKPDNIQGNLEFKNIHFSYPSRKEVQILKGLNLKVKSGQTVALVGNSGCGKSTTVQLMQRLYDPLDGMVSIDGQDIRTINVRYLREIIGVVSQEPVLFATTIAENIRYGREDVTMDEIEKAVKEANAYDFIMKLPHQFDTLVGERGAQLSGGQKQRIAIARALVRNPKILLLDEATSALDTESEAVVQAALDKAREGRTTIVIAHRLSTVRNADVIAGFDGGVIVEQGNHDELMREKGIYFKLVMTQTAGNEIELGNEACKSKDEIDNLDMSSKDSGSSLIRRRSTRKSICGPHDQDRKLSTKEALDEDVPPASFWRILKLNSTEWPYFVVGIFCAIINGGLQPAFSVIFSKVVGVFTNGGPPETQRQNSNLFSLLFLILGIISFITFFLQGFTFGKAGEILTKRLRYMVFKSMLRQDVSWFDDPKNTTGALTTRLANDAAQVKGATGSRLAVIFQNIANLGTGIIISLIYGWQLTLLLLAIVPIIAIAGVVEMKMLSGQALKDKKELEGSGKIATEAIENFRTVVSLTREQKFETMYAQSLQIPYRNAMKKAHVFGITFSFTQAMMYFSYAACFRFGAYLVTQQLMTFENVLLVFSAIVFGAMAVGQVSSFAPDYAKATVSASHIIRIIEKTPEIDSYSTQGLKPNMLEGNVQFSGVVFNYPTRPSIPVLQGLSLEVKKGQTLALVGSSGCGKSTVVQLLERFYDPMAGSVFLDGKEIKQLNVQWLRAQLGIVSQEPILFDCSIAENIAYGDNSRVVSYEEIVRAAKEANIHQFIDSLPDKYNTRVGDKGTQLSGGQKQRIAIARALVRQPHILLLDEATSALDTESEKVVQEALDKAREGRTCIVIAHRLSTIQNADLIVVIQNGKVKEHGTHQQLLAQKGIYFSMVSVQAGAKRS
compound,measurement,setting,value
Cn1c(C(C)(C)C)cc(=NC(=O)c2cc(C(F)(F)F)ccc2OCC(C)(C)O)n1CC1CCC1 [RNB-61],EC50,cynomolgus CB2R,0.0007 ± 3e-05 µM
same,IC50,"MAGL; Table S1, read-out: MAGL (Ki, IC50)",> 10 µM
same,inhibition of EC hydrolysis by MAGL,MAGL; screening concentration 10 μM,did not inhibit
same,IC50,PPARg,> 10 µM
same,efflux ratio at 3 h,human P-gp,40.6
same,efflux ratio at 3 h,mouse P-gp,26.8
same,microsomal CLint,Microsomal clearance,≤ 10 µL/min/mg
same,GSH adducts (rat liver microsomes),GSH adduct formation,did not form any adducts
same,fraction unbound,[1]; human,0.019
same,fraction unbound,[1]; mouse,0.019
same,fraction unbound,[1]; rat,0.017
same,inhibition of accumulation of collagen–III-I,"[2]; 3 mg kg^–1, day 8",61%
same,collagen–III-I positive area vs vehicle,"[2]; all three doses (printed 0.3, 3, and 3 mg kg^–1), day 8",significant reduction
